According to the NIST ThermoML archive (doi:10.1016/j.jct.2013.12.021):
± gives the expanded uncertainty stated by the source.

Assay: Boiling temperature at pressure P
Details: 101.33 kPa; Liquid; Ebulliometric method (Recirculating still)

CO [methanol]
Boiling temperature at pressure P: 64.50 ± 0.1 °C
